In patent publication US7268224B2, “Human glucocorticoid receptor 1A promoter and splice variants” (Board of Supervisors of Louisianna State University and …, priority 2000, dated 2007):

Assays:
[1] = system: hormone-resistant clones of human CEM-C7, T-ALL cells, or mouse SAK8 T-lymphoma cells; conditions: hormone-resistant clones in culture; cited from earlier work
[2] = system: GR 1A3 exon-containing transcripts in CEM-C7 cells; assay: Northern blot of GR exon 1A transcripts after glucocorticoid treatment; assay type: cell-based, human; conditions: 1 μM, data not shown
Text: Glucocorticoid hormone treatment is known to up-regulate the levels of both GR mRNA and GR protein in immature T-lymphocytes and in some T-lymphoblasts that undergo apoptosis following hormone treatment. See Denton et al., (1993); and L. P. Eisen et al., “Positive Regulation of the Glucocorticoid Receptor in Human T-Cells Sensitive to the Cytolytic Effects of Glucocorticoids,” J. Biol. Chem., vol. 263, pp. 12044-12048 (1988). The human CEM-C7 acute lymphoblastic leukemia (ALL) cell line has served as a model system for glucocorticoid-sensitive human T-cell ALL. See M. R. Norman and E. B. Thompson, “Characterization of a Glucocorticoid-Sensitive Human Lymphoid Cell Line,” Cancer Res., vol. 37, pp. 3785-3791 (1977). CEM-C7 cells were treated with 1 μM dexamethasone (a glucocorticoid analogue) for various periods of time, from 6 hr to 48 hr. RNA was then extracted, and northern blots were prepared and probed with the GR-1A-exon-specific probes (exon 1A1, exon 1A2, and exon 1A3; Table 1). […] Up-regulation of exon 1A1 and exon 1A2 transcripts was also observed (data not shown).

[3] = system: GR exon 1 transcripts in CEM-C7 cells; assay: RT-PCR of GR exon 1 transcripts after hormone treatment, CEM-C7; conditions: 1 μM
[4] = system: IRF-1 and IRF-2 protein levels in Jurkat cells; assay: IRF protein levels in interferon-treated Jurkat cells; assay type: cell-based, human; conditions: data not shown
Text: By identifying transcription factor binding sites in the 1A promoter and exon, we will determine whether activation of any of these factors will directly activate the hGR 1A promoter. […] See H. Harada et al., “Structurally Similar but Functionally Distinct Factors, IRF-1 and IRF-2, Bind to the Same Regulatory Elements of IFN and IFN-Inducible Genes,” Cell, vol. 58, pp. 729-739 (1989).

Molecule | sensitivity to glucocorticoid-mediated killing [1] | exon 1A1 and exon 1A2 transcripts [2] | increase in exon 1A3-containing transcripts [3] [fold] | IRF-1 protein levels [4] | IRF-2 protein levels [4]
Nc1ncn([C@@H]2O[C@H](CO)[C@@H](O)[C@H]2O)c(=O)n1 [5-azacytidine] | become stably sensitive to glucocorticoid-mediated killing | – | – | – | –
C[C@@H]1C[C@H]2[C@@H]3CCC4=CC(=O)C=C[C@]4(C)[C@@]3(F)[C@@H](O)C[C@]2(C)[C@@]1(O)C(=O)CO [dexamethasone] | – | Up-regulation | 2.5 | – | –
interferon-α | – | – | – | dramatic increase | not IRF-2
interferon-γ: interferon used to treat Jurkat cells (protein, UniProt P01579 24-161, looked up) Interferon gamma: QDPYVKEAENLKKYFNAGHSDVADNGTLFLGILKNWKEESDRKIMQSQIVSFYFKLFKNFKDDQSIQKSVETIKEDMNVKFFNSNKKKRDDFEKLTNYSVTDLNVQRKAIHELIQVMAELSPAAKTGKRKRSQMLFRG | – | – | – | dramatic increase | not IRF-2
